According to US20240018147A1, “SALT OF COMPOUND FOR DEGRADING BTK, CRYSTAL FORM THEREOF, AND USE THEREOF IN MEDICINE” (HAISCO PHARMACEUTICALS PTE. LTD., priority 2020, published 2024):

How the values were obtained:
BTK = BTK (Homo sapiens (Human), UniProt Q06187); experiment: Detection of BTK degradation in Mino cells; assay type: cell-based
Method: The Mino human mantle cell lymphoma cell line was purchased from ATCC and cultured under conditions of RPMI-1640+15% FBS+1% double antibody in a 37° C., 5% CO2 incubator. Cells were plated in a 6-well plate, with 5×10^5 cells/well. After plating, compounds at different concentrations were added and cultured in a 37° C., 5% CO2 incubator for 48 h. After culturing, the cells were collected. The cells were lysed on ice for 15 minutes by adding RIPA lysis buffer (Beyotime, Cat. P0013B) and centrifuged at 12000 rpm at 4° C. for 10 minutes. The protein sample of the supernatant was collected, subjected to protein quantification by using a BCA kit (Beyotime, Cat. P0009) and then diluted to 0.25 mg/mL. The expressions of BTK (CST, Cat. 85475) and the internal reference β-actin (CST, Cat. 37005) were detected using a fully automated western blot quantitative analyzer (Proteinsimple) with a kit (Protein simple, Cat. SM-W004). The expression level of BTK relative to the internal reference was calculated by using Compass software, and the DC50 value was calculated by using Origen9.2 software according to formula (1). Specifically, the BTKadministration denoted the expression level of BTK in administration groups at different doses, and the BTKvehicle denoted the expression level of BTK in the vehicle control group.
BTK %=BTKadministration/BTKvehicle×100 formula (1)

BTK protein = BTK protein (Mus musculus (Mouse), UniProt P35991); experiment: Detection of BTK protein degradation in spleen of mice; assay type: in vivo; settings: female ICR mice, intragastric, 3 consecutive days; conclusion in words
Method: Female ICR mice, 6-8 weeks old, were purchased from Beijing Vital River Laboratory Animal Technology Co., Ltd., and the experiment was started after 3 days of adaptation. After 3 consecutive days of intragastric administration of compounds at different doses, the spleens of mice were taken. The spleen cells were collected, lysed on ice for 15 min by adding RIPA lysis buffer (Beyotime, Cat. P0013B), and then centrifuged at 12000 rpm at 4° C. for 10 min. The protein sample of the supernatant was collected, subjected to protein quantification by using a BCA kit (Beyotime, Cat. P0009) and then diluted to 0.25 mg/mL. The expressions of BTK (CST, Cat. 8547S) and the internal reference R-actin (CST, Cat. 3700S) were detected by using a fully automated western blot quantitative analyzer (Proteinsimple). The expression level of BTK relative to the internal reference was calculated by using Compass software, and the DD50 value was calculated by using Origen9.2 software according to formula (2). Specifically, the BTKadministration denoted the expression level of BTK in administration groups at different doses, and the BTKvehicle denoted the expression level of BTK in the vehicle control group.
BTK %=BTKadministration/BTKvehicle×100% formula (2)

Sequence of BTK (Q06187 whole entry): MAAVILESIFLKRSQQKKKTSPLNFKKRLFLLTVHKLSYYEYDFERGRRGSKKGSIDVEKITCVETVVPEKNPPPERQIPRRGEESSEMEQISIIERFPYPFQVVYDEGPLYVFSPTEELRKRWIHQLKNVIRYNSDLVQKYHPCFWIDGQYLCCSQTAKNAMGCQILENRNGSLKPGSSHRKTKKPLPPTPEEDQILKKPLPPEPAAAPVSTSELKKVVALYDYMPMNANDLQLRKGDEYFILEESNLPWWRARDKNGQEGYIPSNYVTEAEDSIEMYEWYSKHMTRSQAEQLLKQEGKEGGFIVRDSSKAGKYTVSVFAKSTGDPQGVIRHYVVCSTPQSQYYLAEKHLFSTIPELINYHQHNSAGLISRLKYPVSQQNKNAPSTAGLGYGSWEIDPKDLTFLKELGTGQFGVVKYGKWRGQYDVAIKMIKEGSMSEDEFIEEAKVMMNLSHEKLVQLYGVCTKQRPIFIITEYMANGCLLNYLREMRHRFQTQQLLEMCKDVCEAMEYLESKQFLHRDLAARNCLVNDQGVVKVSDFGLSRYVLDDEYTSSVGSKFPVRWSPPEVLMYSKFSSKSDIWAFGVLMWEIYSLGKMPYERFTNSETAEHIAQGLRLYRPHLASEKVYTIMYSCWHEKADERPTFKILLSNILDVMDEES
Sequence of BTK protein (P35991 whole entry): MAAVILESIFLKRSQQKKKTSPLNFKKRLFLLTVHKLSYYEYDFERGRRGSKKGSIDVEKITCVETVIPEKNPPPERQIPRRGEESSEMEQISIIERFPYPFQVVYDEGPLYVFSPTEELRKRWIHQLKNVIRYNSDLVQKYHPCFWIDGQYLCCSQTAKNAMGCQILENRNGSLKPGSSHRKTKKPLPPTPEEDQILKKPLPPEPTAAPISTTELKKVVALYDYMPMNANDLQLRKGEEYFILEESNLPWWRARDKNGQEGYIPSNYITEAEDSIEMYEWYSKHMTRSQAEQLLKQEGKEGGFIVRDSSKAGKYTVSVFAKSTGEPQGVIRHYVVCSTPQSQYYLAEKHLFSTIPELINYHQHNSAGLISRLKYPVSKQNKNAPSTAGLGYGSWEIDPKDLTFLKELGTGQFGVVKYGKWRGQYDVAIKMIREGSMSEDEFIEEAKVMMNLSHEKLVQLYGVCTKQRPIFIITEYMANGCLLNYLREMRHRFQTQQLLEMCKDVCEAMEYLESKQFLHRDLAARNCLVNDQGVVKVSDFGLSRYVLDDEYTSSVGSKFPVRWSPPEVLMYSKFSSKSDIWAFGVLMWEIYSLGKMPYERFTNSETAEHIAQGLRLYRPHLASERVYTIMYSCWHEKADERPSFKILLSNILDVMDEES

- DC50 (BTK; Mino cells, 48 h, western blot, BTK relative to β-actin): 22.9 nM
- degradation effect on BTK in Mino cells (BTK; conclusion in words): significant degradation effect
- degradation effect on BTK proteins in spleens of mice (BTK protein): significant degradation effect
SMILES: Nc1ncnc2c1c(-c1ccc(Oc3ccccc3)cc1)nn2C1CCN(C2CCN(C3CN(c4ccc5c(c4)C(=O)N(C4CCC(=O)NC4=O)C5=O)C3)CC2)CC1 (stereo not drawn) [Compound 2, 5-(3-(4-(4-amino-3-(4-phenoxyphenyl)-1H-pyrazolo[3,4-d]pyrimidin-1-yl)-[1,4′-bipiperidin]-1′-yl)azetidin-1-yl)-2-(2,6-dioxopiperidin-3-yl)isoindoline-1,3-dione]
